System: HIV-IIIb
Experiment: Antiviral assay in MT-2 cells infected with HIV-IIIb
Format: cell-based
Conditions: Human immunodeficiency virus 1, IIIB, MT2, 120 h, MT-2 cells infected with HIV-IIIb, m.o.i. 0.01, 10% FBS, 5 days at 37° C., CellTiter-Glo chemiluminescence; read-out: EC50 in MT-2 cells

Row | EC50 [nM] | Structure (SMILES)
1 | 4 | C[C@@H](CO)NC(=O)c1c(O)c2ncc(Cc3ccc(F)cc3)c3c2n(c1=O)CCCN3 [compound 51]
2 | 8.5 | CCOCCNC(=O)c1c(O)c2ncc(Cc3ccc(F)cc3)c3c2n(c1=O)CCN3 [compound 38]
3 | 20 | O=C(NCCN1CCNS1(=O)=O)c1c(O)c2ncc(Cc3ccc(F)cc3)c3c2n(c1=O)CC(F)(F)CN3 [Example 144]

Second part, the compound before the results:

Row | Structure (SMILES) | EC50 [nM]
4 | COCCNC(=O)C1=Cn2c(=O)c(C(=O)NCCOC)c(O)c3ncc(Cc4ccc(F)cc4)c(c32)O1 [Example 114] | 6.4
5 | CNC(=O)c1c(O)c2ncc(Cc3ccc(F)cc3)c3c2n(c1=O)C=C(C(=O)NC(CO)CO)O3 [A-94] | 49
6 | CNC(=O)C1=Cn2c(=O)c(C(=O)NCCO)c(O)c3ncc(Cc4ccc(F)cc4)c(c32)O1 [A-89] | 23
7 | CC(C)(C)NC(=O)C1=Cn2c(=O)c(C(=O)NCCO)c(O)c3ncc(Cc4ccc(F)cc4)c(c32)O1 [Example 139] | 2.4
8 | CNC(=O)c1c(O)c2ncc(Cc3ccc(F)cc3)c3c2n(c1=O)CC(CO)O3 (stereo not drawn) [A-25] | 5.5
9 | CNC(=O)c1c(O)c2ncc(Cc3ccc(F)cc3)c3c2n(c1=O)C=C(C(=O)NCC(C)(C)N(C)C)O3 [Example 119] | 2.4
